Experiments:
[1] = system: A549-ACE2 infected with SARS-CoV-2; experiment: cell count relative to DMSO; higher = less toxic; details: 24 h
[2] = system: Caco-2; experiment: cell viability relative to DMSO; higher = less toxic; details: 72 h
[3] = system: Calu-3; experiment: as above; details: 72 h
[4] = system: HepG2; experiment: as above; details: 72 h
[5] = system: U2OS; experiment: as above; details: 72 h
[6] = system: Vero E6; experiment: as above; details: 72 h
[7] = system: A549-ACE2 infected with SARS-CoV-2; experiment: SARS-CoV-2 infection rate relative to DMSO; higher = more infection; details: 24 h
[8] = system: A549-ACE2; experiment: drug-induced phospholipidosis relative to tamoxifen; higher = more phospholipidosis
[9] = system: A549-ACE2 infected with SARS-CoV-2; experiment: morphology score (similarity to uninfected cells); higher = more like uninfected cells; details: 24 h
[10] = system: Caco-2; experiment: relative viability EC50 (midpoint between 100% and the lowest measured viability); higher = less toxic; details: 72 h
[11] = system: Calu-3; experiment: as above; details: 72 h
[12] = system: HepG2; experiment: as above; details: 72 h
[13] = system: U2OS; experiment: as above; details: 72 h
[14] = system: Vero E6; experiment: as above; details: 72 h
[15] = system: Caco-2; experiment: drug sensitivity score (DSS) for viability; higher = more toxic; extreme values may be limits of the assay; details: 72 h
[16] = system: Calu-3; experiment: as above; details: 72 h
[17] = system: HepG2; experiment: as above; details: 72 h
[18] = system: U2OS; experiment: as above; details: 72 h
[19] = system: Vero E6; experiment: as above; details: 72 h

Cc1csc(NC(=O)CSc2ccc(-c3ccccc3)nn2)n1
Details	SARS-CoV-2 infection rate, [7] [%]	cell count, [1] [%]	cell viability, [2] [%]	cell viability, [3] [%]	cell viability, [4] [%]	cell viability, [5] [%]	cell viability, [6] [%]	morphology score, [9]
1 nM	–	–	92.1	85	97.8	98	101	–
10 nM	–	–	93.4	99.1	109	97.3	102	–
100 nM	–	–	103	104	90.4	102	99.1	–
0.3 µM	105	97	–	–	–	–	–	-0.03
1000 nM	–	–	97	99.3	89.1	99.3	105	–
3 µM	88	97	–	–	–	–	–	0.29
10 µM	92	107	–	–	–	–	–	0.25
10000 nM	–	–	104	108	87.4	104	94.5	–
30 µM	84	100	–	–	–	–	–	0.25

drug-induced phospholipidosis [%], [8]
Details	0.3 µM	0.833333 µM	3.33333 µM	6.66667 µM	10 µM	30 µM
24 h	1.93	-1.81	-0.96	2.15	1.89	7.11
48 h	2.87	0.35	1.94	5.23	4.85	15.6
72 h	2.21	0.253	3.17	3.1	6.16	24.6

Details	drug sensitivity score	relative viability EC50 [µM]
[10]	–	> 10
[11]	–	> 10
[12]	–	> 10
[13]	–	> 10
[14]	–	> 10
[15]	0	–
[16]	0	–
[17]	1.2	–
[18]	0	–
[19]	0	–

O=C(COc1ccc(Cl)cc1)N[C@H]1CC[C@H](NC(=O)COc2ccc(Cl)cc2)CC1 [ISRIB]
Details	SARS-CoV-2 infection rate, [7] [%]	cell count, [1] [%]	cell viability, [2] [%]	cell viability, [3] [%]	cell viability, [4] [%]	cell viability, [5] [%]	cell viability, [6] [%]	morphology score, [9]
1 nM	–	–	98.5	107	98.4	99.7	92.2	–
10 nM	–	–	97.1	88.2	100	96.2	98.4	–
100 nM	–	–	95.1	101	105	99	97.2	–
0.3 µM	100	99	–	–	–	–	–	-0.01
1000 nM	–	–	96.6	101	100	96	95.2	–
3 µM	96	103	–	–	–	–	–	0.03
10 µM	103	99	–	–	–	–	–	0.01
10000 nM	–	–	106	99.1	96.3	99.2	91.3	–
30 µM	108	99	–	–	–	–	–	-0.2

drug-induced phospholipidosis [%], [8]
Details	0.3 µM	0.833333 µM	3.33333 µM	6.66667 µM	10 µM	30 µM
24 h	-0.51	0.36	-2.23	-2.98	3.29	-1.76
48 h	0.57	-0.91	-1.5	0.01	2.91	2.54
72 h	-0.626	-0.0303	-1	1.31	3.63	5.83

Details	drug sensitivity score	relative viability EC50 [µM]
[10]	–	> 10
[11]	–	> 10
[12]	–	> 10
[13]	–	> 10
[14]	–	> 10
[15]	0	–
[16]	0	–
[17]	0	–
[18]	0	–
[19]	0	–

O=c1cc(N2CCOCC2)oc2c(-c3cccc4c3sc3ccccc34)cccc12 [NU-7441]
Details	SARS-CoV-2 infection rate, [7] [%]	cell count, [1] [%]	cell viability, [2] [%]	cell viability, [3] [%]	cell viability, [4] [%]	cell viability, [6] [%]	morphology score, [9]
1 nM	–	–	109	101	108	104	–
10 nM	–	–	89.2	110	108	102	–
0.1 µM	101	96	–	–	–	–	-0.14
100 nM	–	–	100	98.7	116	102	–
0.3 µM	101	94	–	–	–	–	-0.23
1 µM	74	105	–	–	–	–	0.22
1000 nM	–	–	71.2	111	88.4	85.4	–
3 µM	38	98	–	–	–	–	0.53
10000 nM	–	–	56.9	61	32.7	14.4	–

drug-induced phospholipidosis [%], [8]
Details	0.3 µM	0.833333 µM	3.33333 µM	6.66667 µM	10 µM	30 µM
24 h	-4.01	-8.02	17.6	23.6	28.1	26.9
48 h	-3.93	-5.23	26.4	–	–	–
72 h	-2.08	-7.5	–	–	–	–

Details	drug sensitivity score	relative viability EC50 [µM]
[12]	–	1.87
[14]	–	1.87
[15]	5.6	–
[16]	1.4	–
[17]	5.6	–
[19]	7.2	–

C=C1C(=O)[C@]23[C@H](O)[C@H]1CC[C@H]2[C@@]12CO[C@]3(O)[C@@H](O)[C@@H]1C(C)(C)CC[C@@H]2O [Oridonin (Isodonol)]
Details	SARS-CoV-2 infection rate, [7] [%]	cell count, [1] [%]	cell viability, [2] [%]	cell viability, [4] [%]	cell viability, [5] [%]	cell viability, [6] [%]	morphology score, [9]
1 nM	–	–	97.7	97.4	102	99.9	–
10 nM	–	–	107	103	95.1	98.7	–
0.1 µM	100	94	–	–	–	–	-0.14
100 nM	–	–	103	91.8	98.3	97.9	–
0.3 µM	99	101	–	–	–	–	-0.02
1 µM	104	99	–	–	–	–	-0.18
1000 nM	–	–	93.3	96.2	94.4	95.4	–
3 µM	101	98	–	–	–	–	-0.01
10000 nM	–	–	65.4	42.8	11.8	79.7	–

drug-induced phospholipidosis [%], [8]
Details	0.3 µM	0.833333 µM	3.33333 µM	6.66667 µM	10 µM	30 µM
24 h	5.1	-1.43	0.65	11	16.8	43.1
48 h	5.34	-3.46	-0.285	6.67	13	–
72 h	4.41	-5.79	-4.81	-1.61	4.49	–

Details	drug sensitivity score	relative viability EC50 [µM]
[12]	–	2.63
[13]	–	2.66
[14]	–	> 10
[15]	2.7	–
[17]	3.7	–
[18]	5.7	–
[19]	1.2	–

— the supplement of paper PMC13380429
